Like-named read-outs stand apart in the source and are kept apart here.
What was measured:
[1] = Therapeutic drug monitoring of teicoplanin concentration after drug withdrawal, LC-MS/MS; type: in vivo, human; details: for TDM Withdraw 8-14d (teicoplanin concentration): 8–14 days after last dose (withdrawal); for TDM Withdraw 8-14d (teicoplanin concentration) / TDM Withdraw 3d (teicoplanin concentration) / TDM Withdraw ≤ 7d (teicoplanin concentration) / TDM Withdraw ≥ 15d (teicoplanin concentration): median [IQR], LC-MS/MS; for TDM Withdraw 3d (teicoplanin concentration): 3 days after last dose (withdrawal); for TDM Withdraw ≤ 7d (teicoplanin concentration): ≤ 7 days after last dose (withdrawal); for TDM Withdraw ≥ 15d (teicoplanin concentration): ≥ 15 days after last dose (withdrawal); for patients with TDM 10–20 mg/L Withdraw ≥ 15d, N (%) / patients with TDM < 10 mg/L Withdraw ≥ 15d, N (%) / patients with TDM > 20 mg/L Withdraw ≥ 15d, N (%): ≥ 15 days after last dose
Method: Teicoplanin (Targocid, Sanofi, Dublin, Ireland) was administered intravenously for 30 min. The prescribed dose regimens were at the discretion of treating physicians, and the recommended regimens were not always followed.
Blood samples (5 mL) were collected from the elbow into ethylenediaminetetraacetic acid-containing Vacutainers® (Becton Dickinson, Milan, Italy) in the morning before teicoplanin administration and after drug withdrawal. Samples were promptly refrigerated and centrifuged at 2500 × g for 10 min before 2 mL of supernatant was preserved at -20 °C for subsequent analysis. Teicoplanin concentrations were determined using liquid chromatography-tandem mass spectrometry. The linear range of the method was 1.0–100.0 mg/L, and the lower limit of quantification was 1.0 mg/L. The relative standard deviation of intra- and inter-batch precision was ≤ 10%.
Teicoplanin concentrations were dynamically monitored. Concentrations at 3, ≤ 7, 8–14, and ≥ 15 days after the first dose and within 2 h of the next scheduled dose were recorded as TDM3d, TDM≤7d, TDM8-14d, and TDM≥15d, respectively. Concentrations at 3, ≤ 7, 8–14, and ≥ 15 days after the last teicoplanin dose (withdrawal) were recorded as TDMw3d, TDMw≤7d, TDMw8-14d, and TDMw≥15d. respectively (Fig. 1a). The Cmin target was ≥ 10 mg/L [6, 7, 23]; a concentration < 10 mg/L was considered suboptimal. Average TDM (TDMa) was defined as the mean Cmin after 3 days of treatment.

[2] = Hepatotoxicity during teicoplanin treatment; type: in vivo, human
Description: Patients with abnormal liver function at baseline were excluded. Hepatotoxicity was defined as an increase in the alanine aminotransferase or aspartate aminotransferase concentration to more than three times the upper limit of the institution’s normal reference ranges.

[3] = in vivo, cited from earlier work
Description: There are few studies on the optimal dose regimen and target concentration of teicoplanin in older adults.

[4] = Nephrotoxicity (acute kidney injury) during teicoplanin treatment; type: in vivo, human
Description: Patients with renal impairment at baseline were excluded. Nephrotoxicity was defined as acute renal impairment indicated by a serum creatinine increase of > 50% from baseline.

[5] = LR-A + MR-A (200 mg once daily, then 200 mg once daily)
[6] = LR-B + MR-A (400 mg once daily, then 200 mg once daily)
[7] = LR-C + MR-B (400 mg at 12-h intervals, then 400 mg once daily)
[8] = 8–14 days after last dose, LR-A + MR-A
[9] = 8–14 days after last dose, LR-B + MR-A
[10] = 8–14 days after last dose, LR-C + MR-B
[11] = LR-B + MR-B (400 mg once daily, then 400 mg once daily)
[12] = LR-C + MR-C (400 mg at 12-h intervals, then 400 mg twice daily)
[13] = 3 days after last dose, LR-A + MR-A
[14] = 3 days after last dose, LR-B + MR-A
[15] = 3 days after last dose, LR-B + MR-B
[16] = 3 days after last dose, LR-C + MR-B
[17] = 3 days after last dose, LR-C + MR-C
[18] = ≤ 7 days after last dose, LR-A + MR-A
[19] = ≤ 7 days after last dose, LR-B + MR-A
[20] = ≤ 7 days after last dose, LR-B + MR-B
[21] = ≤ 7 days after last dose, LR-C + MR-B
[22] = ≤ 7 days after last dose, LR-C + MR-C

TDM Withdraw 8-14d (teicoplanin concentration) [1, 5]: 5.5[3.8,7.6] mg/L
TDM Withdraw 8-14d (teicoplanin concentration) [1, 6]: 5.0[3.4,6.6] mg/L
TDM Withdraw 8-14d (teicoplanin concentration) [1, 7]: 0[0,2.5] mg/L
TDM Withdraw 8-14d (teicoplanin concentration) ([1]; all patients (N = 204)): 5.3[3.3,7.0] mg/L
patients with TDM 10–20 mg/L Withdraw 8-14d, N (%) [1, 8]: 8(16.0)
patients with TDM < 10 mg/L Withdraw 8-14d, N (%) [1, 8]: 42(84.0)
patients with TDM > 20 mg/L Withdraw 8-14d, N (%) [1, 8]: 0
patients with TDM 10–20 mg/L Withdraw 8-14d, N (%) [1, 9]: 7(14.6)
patients with TDM < 10 mg/L Withdraw 8-14d, N (%) [1, 9]: 40(83.3)
patients with TDM > 20 mg/L Withdraw 8-14d, N (%) [1, 9]: 1(2.1)
patients with TDM 10–20 mg/L Withdraw 8-14d, N (%) [1, 10]: 0
patients with TDM < 10 mg/L Withdraw 8-14d, N (%) [1, 10]: 4(100)
patients with TDM > 20 mg/L Withdraw 8-14d, N (%) [1, 10]: 0
patients having concentrations of 10–20 mg/L, TDMw8-14d ([1]; 8–14 days after last dose, all patients, 15 patients): 14.6%
patients having concentrations exceeding 20 mg/L, TDMw8-14d ([1]; 8–14 days after last dose, all patients, one patient): 1.0%
patients in whom the target concentration (≥ 10 mg/L) was achieved after withdrawal ([1]; 8–14 days after withdrawal, all patients): 15.6%
TDM Withdraw 3d (teicoplanin concentration) [1, 5]: 11.1[8.2,16.5] mg/L
TDM Withdraw 3d (teicoplanin concentration) [1, 6]: 9.6[7.2,13.8] mg/L
TDM Withdraw 3d (teicoplanin concentration) [1, 11]: 16.3[9.4,20.2] mg/L
TDM Withdraw 3d (teicoplanin concentration) [1, 7]: 8.4[5.3,11.7] mg/L
TDM Withdraw 3d (teicoplanin concentration) [1, 12]: 12.4[7.9,15.6] mg/L
TDM Withdraw 3d (teicoplanin concentration) ([1]; all patients (N = 204)): 10.6[7.9,15.6] mg/L
patients with TDM 10–20 mg/L Withdraw 3d, N (%) [1, 13]: 7(53.8)
patients with TDM < 10 mg/L Withdraw 3d, N (%) [1, 13]: 5(38.5)
patients with TDM > 20 mg/L Withdraw 3d, N (%) [1, 13]: 1(7.7)
patients with TDM 10–20 mg/L Withdraw 3d, N (%) [1, 14]: 6(42.9)
patients with TDM < 10 mg/L Withdraw 3d, N (%) [1, 14]: 7(50.0)
patients with TDM > 20 mg/L Withdraw 3d, N (%) [1, 14]: 1(7.1)
patients with TDM 10–20 mg/L Withdraw 3d, N (%) [1, 15]: 3(60)
patients with TDM < 10 mg/L Withdraw 3d, N (%) [1, 15]: 1(20)
patients with TDM > 20 mg/L Withdraw 3d, N (%) [1, 15]: 1(20)
patients with TDM 10–20 mg/L Withdraw 3d, N (%) [1, 16]: 2(25.0)
patients with TDM < 10 mg/L Withdraw 3d, N (%) [1, 16]: 6(75.0)
patients with TDM > 20 mg/L Withdraw 3d, N (%) [1, 16]: 0
patients with TDM 10–20 mg/L Withdraw 3d, N (%) [1, 17]: 4(44.4)
patients with TDM < 10 mg/L Withdraw 3d, N (%) [1, 17]: 4(44.4)
patients with TDM > 20 mg/L Withdraw 3d, N (%) [1, 17]: 1(11.2)
patients having concentrations of 10–20 mg/L, TDMw3d ([1]; 3 days after last dose, all patients, 22 patients): 44.9%
patients having concentrations exceeding 20 mg/L, TDMw3d ([1]; 3 days after last dose, all patients, four patients): 8.2%
patients in whom the target concentration (≥ 10 mg/L) was achieved after withdrawal ([1]; 3 days after withdrawal, all patients): 53.1%
TDM Withdraw ≤ 7d (teicoplanin concentration) [1, 5]: 7.9[5.8,11.4] mg/L
TDM Withdraw ≤ 7d (teicoplanin concentration) [1, 6]: 7.2[5.6,12.0] mg/L
TDM Withdraw ≤ 7d (teicoplanin concentration) [1, 11]: 12.3[7.7,17.0] mg/L
TDM Withdraw ≤ 7d (teicoplanin concentration) [1, 7]: 6.3[3.4,9.4] mg/L
TDM Withdraw ≤ 7d (teicoplanin concentration) [1, 12]: 7.5[3.2,15.6] mg/L
TDM Withdraw ≤ 7d (teicoplanin concentration) ([1]; all patients (N = 204)): 7.4[5.7,12.0] mg/L
patients with TDM 10–20 mg/L Withdraw ≤ 7d, N (%) [1, 18]: 13(28.3)
patients with TDM < 10 mg/L Withdraw ≤ 7d, N (%) [1, 18]: 30(65.2)
patients with TDM > 20 mg/L Withdraw ≤ 7d, N (%) [1, 18]: 3(6.5)
patients with TDM 10–20 mg/L Withdraw ≤ 7d, N (%) [1, 19]: 14(29.8)
patients with TDM < 10 mg/L Withdraw ≤ 7d, N (%) [1, 19]: 31(66.0)
patients with TDM > 20 mg/L Withdraw ≤ 7d, N (%) [1, 19]: 2(4.2)
patients with TDM 10–20 mg/L Withdraw ≤ 7d, N (%) [1, 20]: 2(40)
patients with TDM < 10 mg/L Withdraw ≤ 7d, N (%) [1, 20]: 2(40)
patients with TDM > 20 mg/L Withdraw ≤ 7d, N (%) [1, 20]: 1(20)
patients with TDM 10–20 mg/L Withdraw ≤ 7d, N (%) [1, 21]: 2(18.2)
patients with TDM < 10 mg/L Withdraw ≤ 7d, N (%) [1, 21]: 9(81.8)
patients with TDM > 20 mg/L Withdraw ≤ 7d, N (%) [1, 21]: 0
patients with TDM 10–20 mg/L Withdraw ≤ 7d, N (%) [1, 22]: 2(22.2)
patients with TDM < 10 mg/L Withdraw ≤ 7d, N (%) [1, 22]: 6(66.7)
patients with TDM > 20 mg/L Withdraw ≤ 7d, N (%) [1, 22]: 1(11.1)
patients having concentrations of 10–20 mg/L, TDMw≤7d ([1]; ≤ 7 days after last dose, all patients, 33 patients): 28.0%
patients having concentrations exceeding 20 mg/L, TDMw≤7d ([1]; ≤ 7 days after last dose, all patients, seven patients): 5.9%
patients in whom the target concentration (≥ 10 mg/L) was achieved after withdrawal ([1]; ≤ 7 days after withdrawal, all patients): 33.9%
TDM Withdraw ≥ 15d (teicoplanin concentration) [1, 5]: 4.54[0,7.3] mg/L
TDM Withdraw ≥ 15d (teicoplanin concentration) [1, 6]: 4.1[0,7.0] mg/L
TDM Withdraw ≥ 15d (teicoplanin concentration) [1, 7]: 0[0,0] mg/L
TDM Withdraw ≥ 15d (teicoplanin concentration) [1, 12]: 2.1[0,2.8] mg/L
TDM Withdraw ≥ 15d (teicoplanin concentration) ([1]; all patients (N = 204)): 3.5[0,6.4] mg/L
patients with TDM 10–20 mg/L Withdraw ≥ 15d, N (%) ([1]; LR-A + MR-A): 1(2.4)
patients with TDM < 10 mg/L Withdraw ≥ 15d, N (%) ([1]; LR-A + MR-A): 41(97.6)
patients with TDM > 20 mg/L Withdraw ≥ 15d, N (%) ([1]; LR-A + MR-A): 0
patients with TDM 10–20 mg/L Withdraw ≥ 15d, N (%) ([1]; LR-B + MR-A): 4(10.5)
patients with TDM < 10 mg/L Withdraw ≥ 15d, N (%) ([1]; LR-B + MR-A): 34(89.5)
patients with TDM > 20 mg/L Withdraw ≥ 15d, N (%) ([1]; LR-B + MR-A): 0
patients with TDM 10–20 mg/L Withdraw ≥ 15d, N (%) ([1]; LR-C + MR-B): 0
patients with TDM < 10 mg/L Withdraw ≥ 15d, N (%) ([1]; LR-C + MR-B): 5(100)
patients with TDM > 20 mg/L Withdraw ≥ 15d, N (%) ([1]; LR-C + MR-B): 0
patients with TDM 10–20 mg/L Withdraw ≥ 15d, N (%) ([1]; LR-C + MR-C): 0
patients with TDM < 10 mg/L Withdraw ≥ 15d, N (%) ([1]; LR-C + MR-C): 5(100)
patients with TDM > 20 mg/L Withdraw ≥ 15d, N (%) ([1]; LR-C + MR-C): 0
patients in whom the target concentration (≥ 10 mg/L) was achieved after withdrawal ([1]; ≥ 15 days after withdrawal, all patients): 5.5%
patients in whom teicoplanin remained detectable ([1]; ≥ 15 days after withdrawal, lower limit of quantification 1.0 mg/L): two-thirds
Substance: Teicoplanin
incidence of hepatotoxicity ([2]; TDMa < 10 mg/L (2/65)): 3.1%
incidence of hepatotoxicity ([2]; TDMa = 10–20 mg/L (3/57)): 5.3%
incidence of hepatotoxicity ([2]; TDMa = 20–40 mg/L (1/26)): 3.8%
incidence of hepatotoxicity ([2]; all evaluable patients (6/148), ALT or AST more than three times the upper limit of normal): 4.1%
average elimination half-life ([3]; human): 107 h
half-life of teicoplanin ([3]; human): 71 to 80 h
half-life of teicoplanin [3]: 71 to 163 h
incidence of acute kidney injury (AKI) / nephrotoxicity ([4]; TDMa < 10 mg/L (5/52)): 9.6%
incidence of acute kidney injury (AKI) / nephrotoxicity ([4]; TDMa = 10–20 mg/L (6/50)): 12.0%
incidence of acute kidney injury (AKI) / nephrotoxicity ([4]; TDMa = 20–40 mg/L (4/18)): 22.2%
incidence of acute kidney injury (AKI) / nephrotoxicity ([4]; all evaluable patients (15/120), serum creatinine increase > 50% from baseline): 12.5%

Reference: publication PMC11149339, “Necessity for higher teicoplanin doses in older adults: a multicenter prospective observational study in China” (BMC Geriatrics, 2024)
